Experimental data from patent publication US9877681B2, ““Micro-patch” for assessment of the local microvasculature and microcirculatory vasoreactivity” (priority 2007, dated 2018).
“Also recorded” adds a separate entry of the source. Like-named read-outs stand apart in the source and are kept apart here.

Legend:
[1] = tested on: local microvasculature (forehead); conditions: scopolamine applied with/before nicotine, FIG. 18
[2] = tested on: local microvasculature (forehead); test: Laser Doppler scanner imaging of micro-patch sites on the forehead; type: in vivo, human; conditions: several minutes after application, FIGS. 22-24
Excerpt: Another alternative is provided by the laser Doppler scanning imager. […] [Wardell K, Braverman I M, Silverman D G, Nilsson G E: Spatial heterogeneity in normal skin perfusion recorded with laser Doppler imaging and flowmetry. Microvascular Research 48(1):26-38, 1994 July]. […] This is accomplished by rapidly scanning an area by a shifting light that is sequentially directed to successive study sites by a mirror. […] This is because the laser Doppler scanner typically monitors a given site for fractions of a second. […] Compromises include rapidly scanning all sites at repeat intervals for a long enough period to overcome the effects of pulsations and oscillations. However, a relatively long interval is required to ensure this. Thus, the laser Doppler scanner mitigates spatial variability at the expense of temporal variability (e.g., beat-to-pulsations with each heart beat as well as oscillations in activity as a component of autonomic regulation of blood vessels).

forearm blood flow = conditions: Iontophoresis, inc, cited from earlier work
forehead blood flow = test: Non-iontophoretic transdermal acetylcholine at the forehead, laser Doppler flowmetry (Table 2); type: in vivo, human; conditions: Silverman, <0.25 ml of 1%, inc
Excerpt: (§1) Mixing was accomplished to achieve a final product that was smooth and free of abrasive particles. Based on trial and error testing, it was elected to pursue testing with acetylcholine chloride powder dissolved in water for placement on an adherent surface (e.g., clear tape). […] This dose is proportional to doses of MIOCHOL-E,™ (that is, a clinically available acetylcholine preparation that is used to produce papillary constriction (miosis) during cataract surgery) that had been tested in preliminary trials. However, the agent used for micro-patches can be superconcentrated compared to the solution used for intraocular injection—made possible because of the small delivery area.
The dry side of the acetylcholine “micro-patch” was adhered to the end of a laser Doppler flowmetry probe (a PF 5010 with Probe Model 407, Perimed, Sweden in accordance with a preferred embodiment) (see FIGS. 1 and 2). A sham drug micro-patch was made in the same way with 0.02-mL of HPLC-grade water instead of acetylcholine solution. […] As detailed below, this delivered as much as 10% of that used to constrict the pupil during cataract surgery Dose-response curve can be assessed with serial dilutions. […]

[3] = tested on: local microvasculature (forehead); test: Study B: acetylcholine and nitroglycerin micro-patches, laser Doppler flowmetry of forehead perfusion in patients with diabetes; type: in vivo, human; conditions: 10 diabetic patients with retinopathy
Experimental: Methods: For each session, subjects lay on a bed in a semi-recumbent position in a temperature-controlled room (24+1° C.). A three-lead electrocardiogram and a noninvasive brachial artery blood pressure cuff were applied. The three laser Doppler flowmetry probes with customized acetylcholine, nitroglycerin, and placebo micro-patches (as described above) attached were adhered onto the three double-stick discs on the forehead so as to enable undisturbed monitoring and drug delivery. Laser Doppler flowmetry monitoring was performed continuously at each site until a vasodilatory plateau was maintained for ≧3 minutes or for a maximum of 20 minutes. Data were collected at a rate of 1000 Hz using Chart for Windows (ADlnstruments, Colorado Springs, Colo.).
The local microvascular effects of transdermal acetylcholine and nitroglycerin were first tested in 10 healthy volunteers (7 males, 3 females; mean age 36.1, range 19 to 56 years) without vascular disease or diabetes. […]
An investigator blinded to the status of the subject and to the nature of the study site assessed the laser Doppler tracing at each study site. […] The effects of the single dose of acetylcholine was compared to the single dose of nitroglycerin in the healthy volunteers, with the differences analyzed using Wilcoxon Signed Rank Test (WSRT). […]

[4] = tested on: local microvasculature (forehead); test: Study B: acetylcholine and nitroglycerin micro-patches, laser Doppler flowmetry of forehead perfusion in healthy volunteers; type: in vivo, human; conditions: for increase in laser Doppler flowmetry readings, mean (95% CI): 10 healthy volunteers, forehead, plateau vs baseline; for time to marked rise in laser Doppler flowmetry voltage (flux) after drug application: each healthy volunteer; for blood flow at the micro-patch site, representative tracings: one healthy subject, FIG. 19
Excerpt: as §1
The dry side of the acetylcholine “micro-patch” was adhered to the end of a laser Doppler flowmetry probe (a PF 5010 with Probe Model 407, Perimed, Sweden in accordance with a preferred embodiment) (see FIGS. 1 and 2). A sham drug micro-patch was made in the same way with 0.02-mL of HPLC-grade water instead of acetylcholine solution. Before micro-patch application, a DOUBLE-STICK DISC™ (3M Health Care, Neuss, Germany) (that is, the double-sided adhesive ring 6 discussed above) with an overall diameter of 38.1-mm and a central hole (or opening) diameter of 8.7-mm is placed at the site to be tested. The double-sided adhesive ring 6 serves as an adherent base onto which a monitor such as a laser Doppler flowmetry probe 1 is placed as well as to define the area (59.4-mm^2) for drug application. In addition to providing for targeted adherence, when placed between the micro-patch 2 and the study surface (as shown in FIG. 1) this further limits the area of drug delivery by providing a barrier to drug delivery from the outer regions of the micro-patch 2. As detailed below, this delivered as much as 10% of that used to constrict the pupil during cataract surgery Dose-response curve can be assessed with serial dilutions. […] Laser Doppler flowmetry is an exemplary form of potential monitoring (used in each of the Table 2 studies).
The creation of a nitroglycerin micro-patch so as to enable concurrent monitoring of an endothelium-dependent transdermal preparation (acetylcholine, described above) and an endothelium-independent vasodilator (nitroglycerin) is simpler than the creation of the acetylcholine micro-patch. […] The present invention provides not only for the application of the disclosed method for monitoring the local circulation but the tailoring of the micro-patch to ensure effective delivery throughout the monitoring site while avoiding delivery of excess drug that might predispose to remote and/or systemic effects. For a single laser Doppler flowmetry probe, the nitroglycerin micro-patch may be obtained by using a standard hole-punch to cut a 6-mm diameter (28.3-mm^2 area) section of a full size 0.6 mg/hr MINITRAN™ nitroglycerin patch (3M, Minnesota). Alternatively, for applications where one wishes to move the laser Doppler flowmetry probe so as to encompass a larger area (as with the inventive assembly in FIG. 16), a small rectangle may be appropriate. Such patches are designed for homogeneous delivery of drug at a rate of 0.03-mg/hour per 100-mm^2 area of patch, such that the section used in the inventive micro-patch delivered at a rate of approximately 0.008-mg/hr. Although not currently available, lesser or higher concentrations of nitroglycerin may be used for micro-patches, pending dose response studies to confirm local efficacy and lack of systemic effects. The nitroglycerin micro-patch then is placed onto a double-sided adhesive ring for adherence to a monitoring probe (see FIGS. 1 and 2) or it may be placed on the tissue under an elevated support assembly 131 or scanner (described below).
Methods: For each session, subjects lay on a bed in a semi-recumbent position in a temperature-controlled room (24+1° C.). A three-lead electrocardiogram and a noninvasive brachial artery blood pressure cuff were applied. […]

[5] = tested on: local microvasculature (finger); test: Micro-patch applied to the finger, laser Doppler flowmetry; type: in vivo, human
Excerpt: The difference likewise is seen in results generated by a laser Doppler scanner (discussed below).

[6] = tested on: local microvasculature (forehead); test: Study D: impact of fatty meal on responses to nitroglycerin and acetylcholine micro-patches; type: in vivo, human; conditions: 10 minutes after patch application
Experimental: Two hours later, subjects underwent application of acetylcholine and nitroglycerin micro-patches. As described above, the former was prepared by mixing 100 mg of solid acetylcholine with […] of sterile water. From this solution (concentration of 14.3 mg/ml) we used an aliquot of just under 0.14 ml (less than 10% of the standard 20 mg dose injected into the eye during cataract surgery). The latter consisted of a 1.4 cm×1.4 cm translucent square (cut from a full-sized nitroglycerin patch) to delivery 0.008 mg/hr of nitroglycerin to the study site. Before each patch application, seven sites of the forehead were monitored with a commercially available integrating laser Doppler flowmetry probe that averages the output from several closely packed light-transmitting channels (to partially overcome spatial heterogeneity). At 10 minutes after patch application, readings were repeated. Changes were analyzed using paired t-test.

[7] = tested on: local microvasculature (finger); test: Laser Doppler scanner imaging of micro-patch sites on the fingers; type: in vivo, human; conditions: FIG. 25
Excerpt: Nitroglycerin induces vasodilation independent of the parasympathetic pathways. […] Anesthesiology 2004;101:A246] and phenylephrine [Silverman D G, Stout R G: Distinction between atropine-sensitive control of microvascular and cardiac oscillatory activity. Microvasc Res 63:196-208, 2002].

[8] = tested on: local microvasculature (forehead)
Experimental: Prior to the customization of nitroglycerin according to the present invention, nicotine was customized in accordance with the purposes of present invention. This entailed customization of a commercially available clear NICODERM patch, nicotine delivery patch, (with 0.83 mg of nicotine/cm^2). Again, lesser or higher concentrations may be used for a micro-patch; these are not currently available, since currently available nicotine patches delivery a fixed dose/cm^2 patch such that a higher systemic dose is obtained by using a larger patch.
The preliminary investigations with nicotine micro-patches (0.83 mg/cm^2) entailed customizing a section of the micro-patch so that it adhered to an area of skin that was sufficient to deliver drug to the area under a laser Doppler flowmetry probe and that enabled attachment of the laser Doppler flowmetry probe to an upper surface of the micro-patch.

local microvasculature = test: Fast Fourier transformation (FFT) of signals at micro-patch sites; type: in vivo, human
Excerpt: This leads to present disclosure of a means to overcome the potential confusion: I herein introduce the application of spectral domain analysis [fast Fourier transformation (FFT), alluded to above, and variations thereof such as joint time frequency)] to characterize PTT values. This enables comparative assessment of: FFT of PTTPPG (primarily influenced by arrival of the stroke volume at underlying artery), FFT of PTTlaserDoppler (arrival of stroke volume at microvasculature), and FFT of PTTPPG-LaserDoppler.
Once combined monitoring becomes available at a given site, and then concurrent FFT analysis of PTT of artery, acv and vein will enable one to delineate the sites of microvascular and neuro-microvascular activity. In addition to micro-patch induced changes in readings between sites of measurement (e.g. PTT), we can also measure changes at sites of measurement (e.g., mean, heights). Again, confounders such as different units and differing criteria for onset may be avoided with FFT.

Compound | relative blood flow at the micro-patch site (laser Doppler scanner) [2] | mean percent increase in blood flow (95% CI) [3] | increase in laser Doppler flowmetry readings, mean (95% CI) [4] | time to marked rise in laser Doppler flowmetry voltage (flux) after drug application [4] | blood flow at the micro-patch site, representative tracings [4] | change in flow when applied to the finger [5] | flow at the micro-patch site (laser Doppler scanner) [7] | also measured
CN1[C@@H]2C[C@@H](OC(=O)[C@H](CO)c3ccccc3)C[C@H]1[C@@H]1O[C@@H]12 [scopolamine] |  |  |  |  |  |  |  | effect of scopolamine on the nicotine-induced increase in perfusion [1]: blunted; also recorded: inhibition
CC(=O)OCC[N+](C)(C)C.[Cl-] [acetylcholine, acetylcholine chloride] | increase in relative blood flow; also recorded: increased blood flow | 156% (91%-221%) | 406% (245%-566%) | two | Prompt increases in blood flow |  |  | Change in Blood Flow (forearm blood flow; Morris, approx 0.25 ml of 1%): 50-100%; Change in Blood Flow (forearm blood flow; Noon, approx 0.25 ml of 2%): 1000%; Change in Blood Flow (forehead blood flow): 50-250%; change in systemic blood pressure and heart rate ([4]; human, in vivo): lack of significant change
O=[N+]([O-])OCC(CO[N+](=O)[O-])O[N+](=O)[O-] [nitroglycerin] | increase in relative blood flow; also recorded: caused vasodilation; also recorded: Increased flow | 116% (79%-153%) | 365% (179%-550%) | two | Prompt increases in blood flow | significant change | induced vasodilation; also recorded: flow increased | nitroglycerin/acetylcholine ratio of induced increase ([6]; two hours after fat-laden meal): 1.31; nitroglycerin/acetylcholine ratio of induced increase ([6]; two hours after nonfat meal): 0.94; change in systemic blood pressure and heart rate ([4]; healthy volunteers): lack of significant change
CN1CCCC1c1cccnc1 (stereo not drawn) [nicotine] | increase in relative blood flow; also recorded: caused vasodilation; also recorded: greatest flow |  |  |  |  | no significant change | lack of increased flow | increase in flow at the active site ([8]; button-sized translucent micro-patch, forehead of seven healthy subjects): 388.4%; response at a remote site or in systemic indices (heart rate, blood pressure, flow at other sites) ([8]; drug delivery limited to the micro-patch): no response; flow at the nicotine site relative to baseline (laser Doppler flowmetry) ([8]; forehead, between 5 and 15 minutes after application, FIG. 17): approximately 300 % of baseline; increase in local blood flow ([8]; transdermal application at the forehead, within 30 min): 2-5 fold; local microvasculature's response to the micro-patch ([8]; transdermal micro-patch): vasodilation; change in the 0.03-0.12 Hz frequency range by FFT (local microvasculature; 0.03-0.12 Hz): marked increase; oscillatory activity at micro-patch site by FFT (local microvasculature; in vivo): marked oscillatory activity
